Patent US20140243335A1, “SUBSTITUTED HYDOXAMIC ACIDS AND USES THEREOF” (Millennium Pharmaceuticals, Inc., priority 2010, published 2014)

Target: T1, purified human HDAC6 (Homo sapiens, UniProt Q9UBN7)
T1 construct: purchased BPS Bioscience 5006
T1 sequence (Q9UBN7 1-1215): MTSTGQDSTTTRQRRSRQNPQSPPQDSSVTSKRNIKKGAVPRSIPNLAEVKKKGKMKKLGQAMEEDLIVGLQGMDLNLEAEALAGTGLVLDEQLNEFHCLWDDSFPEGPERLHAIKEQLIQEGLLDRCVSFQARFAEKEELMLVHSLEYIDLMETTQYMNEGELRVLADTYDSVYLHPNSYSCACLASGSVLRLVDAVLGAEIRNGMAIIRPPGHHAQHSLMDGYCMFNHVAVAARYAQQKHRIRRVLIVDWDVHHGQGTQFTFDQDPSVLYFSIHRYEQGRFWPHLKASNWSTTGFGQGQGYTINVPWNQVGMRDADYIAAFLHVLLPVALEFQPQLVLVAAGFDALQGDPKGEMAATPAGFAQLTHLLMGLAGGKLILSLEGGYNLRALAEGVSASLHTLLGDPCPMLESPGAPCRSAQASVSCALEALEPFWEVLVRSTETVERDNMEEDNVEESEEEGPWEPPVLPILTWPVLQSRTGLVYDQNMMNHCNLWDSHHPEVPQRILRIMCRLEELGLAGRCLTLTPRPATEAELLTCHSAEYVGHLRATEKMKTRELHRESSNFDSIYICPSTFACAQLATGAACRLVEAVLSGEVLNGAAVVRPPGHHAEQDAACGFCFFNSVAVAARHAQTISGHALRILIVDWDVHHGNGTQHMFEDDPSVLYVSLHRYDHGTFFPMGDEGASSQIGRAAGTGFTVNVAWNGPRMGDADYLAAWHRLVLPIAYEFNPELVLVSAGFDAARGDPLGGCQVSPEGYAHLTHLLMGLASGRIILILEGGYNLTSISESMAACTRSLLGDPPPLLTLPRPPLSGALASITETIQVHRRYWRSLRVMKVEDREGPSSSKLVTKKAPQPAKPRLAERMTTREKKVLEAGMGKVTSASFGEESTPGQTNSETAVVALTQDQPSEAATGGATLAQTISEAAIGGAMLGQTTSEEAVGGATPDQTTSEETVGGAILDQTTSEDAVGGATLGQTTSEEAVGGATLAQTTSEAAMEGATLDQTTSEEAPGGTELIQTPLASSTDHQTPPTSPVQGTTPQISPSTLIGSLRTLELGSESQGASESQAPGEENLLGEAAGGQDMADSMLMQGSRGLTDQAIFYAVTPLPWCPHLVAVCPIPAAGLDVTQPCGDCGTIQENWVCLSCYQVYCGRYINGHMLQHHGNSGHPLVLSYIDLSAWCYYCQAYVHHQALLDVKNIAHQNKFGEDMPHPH
Assay: HDAC6 Enzyme Assay
Type: biochemical
Conditions: HDAC6 inhibition at a compound concentration of 0.412 μM; read-out: Percent Inhibition at 0.412 μM

| Compound | inhibition at 0.412 µM [%] |
| --- | --- |
| CN(C)Cc1cccc(C2CCc3cc(C(=O)NO)ccc3C2)c1 (stereo not shown) [Compound I-183, 6-{3-[(dimethylamino)methyl]phenyl}-N-hydroxy-5,6,7,8-tetrahydronaphthalene-2-carboxamide] | 69 |
| O=C(NO)c1ccc2c(c1)CCCC2NC(=O)c1sc2ccccc2c1Cl (stereo not shown) [Compound I-32, 3-chloro-N-{6-[(hydroxyamino)carbonyl]-1,2,3,4-tetrahydronaphthalen-1-yl}-1-benzothiophene-2-carboxamide] | 69 |
| CC(C)(C)OC(=O)N1CCC(C2CCc3ccc(C(=O)NO)cc3C2)CC1 (stereo not shown) [Compound I-221, tert-butyl 4-{7-[(hydroxyamino)carbonyl]-1,2,3,4-tetrahydronaphthalen-2-yl}piperidine-1-carboxylate] | 41 |
| O=C(NO)c1ccc2c(c1)CC(c1cccc(C(F)(F)F)c1)CC2 (stereo not shown) [Compound I-115, N-hydroxy-7-[3-(trifluoromethyl)phenyl]-5,6,7,8-tetrahydronaphthalene-2-carboxamide] | 81 |
| O=C(NO)c1ccc2c(c1)CCC[C@@H]2NC(=O)c1cn2cc(Cl)ccc2n1 [Compound I-70, 6-chloro-N-{(1S)-6-[(hydroxyamino)carbonyl]-1,2,3,4-tetrahydronaphthalen-1-yl}imidazo[1,2-a]pyridine-2-carboxamide] | 63 |
| O=C(NO)c1ccc2c(c1)CC(OCc1ccc(Cl)cc1)CC2 (stereo not shown) [Compound I-117, 7-[(4-chlorobenzyl)oxy]-N-hydroxy-5,6,7,8-tetrahydronaphthalene-2-carboxamide] | 92 |
| O=C(Cc1c(F)cccc1F)NC1CCCc2cc(C(=O)NO)ccc21 (stereo not shown) [Compound I-1, 5-{[(2,6-difluorophenyl)acetyl]amino}-N-hydroxy-5,6,7,8-tetrahydronaphthalene-2-carboxamide] | 34 |
| O=C(NO)c1ccc2c(c1)CCCC2NC(=O)c1cc2ccccc2s1 (stereo not shown) [Compound I-24, N-{6-[(hydroxyamino)carbonyl]-1,2,3,4-tetrahydronaphthalen-1-yl}-1-benzothiophene-2-carboxamide] | 46 |
| O=C(NO)c1ccc2c(c1)CCCC2NC(=O)C1(c2ccccc2)CCCC1 (stereo not shown) [Compound I-46, N-hydroxy-5-{[(1-phenylcyclopentyl)carbonyl]amino}-5,6,7,8-tetrahydronaphthalene-2-carboxamide] | 22 |
| O=C(NO)c1ccc2c(c1)CC(c1ccc(Cl)cc1)CC2 (stereo not shown) [Compound I-90, 7-(4-chlorophenyl)-N-hydroxy-5,6,7,8-tetrahydronaphthalene-2-carboxamide] | 82 |
| Cn1cccc1C(=O)NC1CCc2cc(C(=O)NO)ccc2C1 (stereo not shown) [Compound I-62, N-(6-(hydroxycarbamoyl)-1,2,3,4-tetrahydronaphthalen-2-yl)-1-methyl-1H-pyrrole-2-carboxamide] | 75 |
| O=C(Nc1ccccc1)NC1CCc2ccc(C(=O)NO)cc2C1 (stereo not shown) [Compound I-94, 7-[(anilinocarbonyl)amino]-N-hydroxy-5,6,7,8-tetrahydronaphthalene-2-carboxamide] | 96 |
| O=C(Cc1ccc(C(F)(F)F)cc1)NC1CCCc2cc(C(=O)NO)ccc21 (stereo not shown) [Compound I-10, N-hydroxy-5-({[4-(trifluoromethyl)phenyl]acetyl}amino)-5,6,7,8-tetrahydronaphthalene-2-carboxamide] | 20 |
| CCOC1CCc2ccc(C(=O)NO)cc2C1 (stereo not shown) [Compound I-118, 7-ethoxy-N-hydroxy-5,6,7,8-tetrahydronaphthalene-2-carboxamide] | 75 |
| Cc1oc(-c2ccccc2)cc1C(=O)NC1CCc2cc(C(=O)NO)ccc2C1 (stereo not shown) [Compound I-59, N-{6-[(hydroxyamino)carbonyl]-1,2,3,4-tetrahydronaphthalen-2-yl}-2-methyl-5-phenyl-3-furamide] | 56 |
| CC(C)C(C(=O)NC1CCCc2cc(C(=O)NO)ccc21)c1ccccc1 (stereo not shown) [Compound I-31, N-hydroxy-5-[(3-methyl-2-phenylbutanoyl)amino]-5,6,7,8-tetrahydronaphthalene-2-carboxamide] | 17 |
